This passage reports GI50 and TGI results from PubChem BioAssay (NCI).

Common to all, as to test: NCI anticancer screen, dose series, 48 h
Assay [1] relates to DU-145 prostate.
Assay [2] concerns MDA-MB-231 breast.
For assay [3], the system named is MOLT-4 leukemia.
Assay [4] has as its system NCI-H226 lung.
Assay [5] has as its system NCI/ADR-RES ovarian.
Assay [6] relates to SF-295 CNS.
Assay [7] deals with SF-539 CNS.
The test system of assay [8] is SN12C renal.
The test system of assay [9] is SR leukemia.
Assay [10] deals with UO-31 renal.

Structures are written as SMILES.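 Interpolation was linear, between the two tested concentrations surrounding the appropriate level; five concentrations were tested over 48 hours in 96-well plates. Here, GI50 denotes the concentration required for 50% inhibition of growth. Definition used: TGI = concentration required for complete inhibition of growth.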

Take `CN(C)CCOc1nc2ccccc2c2c1-c1ccc(Cl)cc1C2=O`: the GI50 in assay [1] is 444 nM; in [2], 1100 nM; in assay [3], 302 nM; in assay [4] it was 735 nM; in assay [5], 696 nM; in assay [6] it was 1530 nM. Also, the GI50 in assay [7] was 1070 nM; in assay [8], 389 nM; in [9] it was 305 nM; in [10], 222 nM. Moreover, the TGI was 1.35 µM in assay [1]; 3 µM in assay [2]; 1.51 µM in [3]; 8.65 µM in [4]; 4.4 µM in [5]; greater than 100 µM in [6]. The TGI is 2.59 µM in [7], 2.36 µM in assay [8], 1.03 µM in [9] and 1.27 µM in assay [10].

In the case of `CS(=O)(=O)c1nc(Cl)c(Cl)c(C#N)c1Cl`, the TGI is 21.4 µM in [1]; 3.24 µM in assay [2]; 6.02 µM in assay [3]; 24.6 µM in assay [4]; 6.19 µM in assay [5]; 35.1 µM in assay [6]. Further, the TGI was 11.3 µM in assay [7], 5.9 µM in [8], greater than 36.4 µM in assay [9] and 4.31 µM in assay [10].

For the compound `CC(=O)OCC(=O)C1(O)C(C)CC2C3C=C(C)C4=Cc5c(cnn5-c5ccccc5)CC4(C)C3C(O)CC21C` (stereo not given), the GI50 was 1930 nM in [1]; 1850 nM in assay [2]; 753 nM in [3]; 2160 nM in assay [4]; 1940 nM in assay [5]; 624 nM in assay [6]. For the same compound, the GI50 was 439 nM in [7], 1630 nM in assay [9] and 2470 nM in [10]. In addition, the TGI in assay [1] was 5.74 µM; in assay [2], 4.34 µM; in assay [3], greater than 22 µM; in [4], 11.2 µM; in [5] it was 8.73 µM; in [6], 2.63 µM. Further, the TGI is 2.41 µM in assay [7], 9.86 µM in assay [8], greater than 27.2 µM in assay [9] and 8.43 µM in assay [10].

`Oc1[nH]c2ccc(Cl)cc2c1/C=c1/ccc2c(c1)N=C(c1cc(F)cc(F)c1)N=2`: the GI50 is 4820 nM in assay [1]; 3850 nM in [2]; 3320 nM in assay [3]; greater than 100000 nM in assay [4]; 2320 nM in assay [5]; 8700 nM in [7]. Moreover, the GI50 in assay [8] is 5410 nM; in [9], 2980 nM; in assay [10], 87300 nM. The TGI in [1] is greater than 100 µM; in [2], greater than 100 µM; in assay [3], greater than 100 µM; in assay [4] it was greater than 100 µM; in assay [5], 5.87 µM; in [7], greater than 100 µM. Besides, the TGI in [8] is greater than 100 µM; in [9] it was 7.95 µM; in assay [10], greater than 100 µM.

On to `CCNCCNc1cc(-c2cccc(C(F)(F)F)c2)c(C#N)c2nc3ccccc3n12`, for which the GI50 is 1470 nM in assay [1]; 1670 nM in [2]; 1640 nM in assay [4]; 1810 nM in [5]; 1790 nM in assay [6]; 1700 nM in assay [7]. Moreover, the values for the GI50 in [8] and in [10] were 1740 nM and 603 nM, respectively. Besides, the TGI in assay [1] was 2.83 µM; in assay [2], 3.29 µM; in assay [4], 3.64 µM; in assay [5], 3.86 µM; in [6], 3.39 µM; in [7], 3.23 µM. The TGI amounted to 3.37 µM in assay [8] and 2.07 µM in [10].

In the case of `NC(=O)NC(=O)C1CCCCC1C(=O)O` (stereo not given), the TGI in [1], in assay [2], in assay [4], in assay [5], in assay [6] and in assay [7] was greater than 100 µM each time. In addition, the TGI in assay [8] and in assay [10] was greater than 100 µM in each case.

Regarding `Cc1cc2nc3c4ccccc4n(CCN(C)C)c3nc2cc1C`, the GI50 in assay [1] is 2070 nM; in [2], 1760 nM; in assay [3] it was 555 nM; in assay [4] it was 2010 nM; in assay [5], 1390 nM; in assay [6], 1390 nM. The GI50 in assay [7] was 1830 nM; in assay [8] it was 1080 nM; in assay [10], 726 nM. In addition, the TGI in [1] turned out to be 11.8 µM; in assay [2], 9.91 µM; in assay [3] it was 9.9 µM; in assay [4], 6.99 µM; in assay [5], 12.7 µM; in assay [6], 9.84 µM. The TGI in assay [7] was found to be 4.66 µM; in assay [8] it was 10.5 µM; in [10] it was 14.5 µM.

As for `N#CC(C#N)=Cc1ccc(-c2ccc(-c3nc4ccccc4o3)cc2)o1`, the GI50 in assay [1] is 36500 nM; in assay [2], 19900 nM; in assay [3] it was 12100 nM; in assay [4] it was 21000 nM; in [5], 20800 nM; in assay [6], 30100 nM. Moreover, the GI50 in assay [7] is 31100 nM; in assay [10], 58400 nM. In addition, the TGI in assay [1] is greater than 100 µM; in [2], 69.5 µM; in assay [3], greater than 100 µM; in assay [4], 99.7 µM; in [5], 50.1 µM; in assay [6], greater than 100 µM. Besides, the results for the TGI in assay [7], in [8] and in assay [10] were greater than 100 µM, 16.5 µM and greater than 100 µM, respectively.

`COc1cc2c3c(c1O)C1(C=CC(=O)C=C1)CC3N(C)CC2` (stereo not given): the TGI in assay [1] was 26 µM; in assay [2] it was 17.4 µM; in assay [3], 37.3 µM; in [4], greater than 100 µM; in assay [5], 11 µM; in [6] it was 24.3 µM. The TGI in assay [7] came to 28.8 µM; in [8] it was 30.2 µM; in [9] it was 25.8 µM.
